Experimental findings from article PMC4403932 (Journal of Medicinal Chemistry, 2015) are described below.

Assay type in all cases: binding
One assay deals with T1, BRD3(1) (Homo sapiens, UniProt Q15059).
T1 construct: Fragments were tested in a thermal shift assay against bromodomains of the BET subfamily; made in house
The experiment in a line: Protein stability (thermal) shift assay, BRD3(1). The settings on record: compound 10 μM, protein 2 μM; average of triplicate. As to the method:
(§1) Thermal melting experiments were carried out using an Mx3005p real time PCR machine (Stratagene). Proteins were buffered in 10 mM HEPES, pH 7.5, 500 mM NaCl and assayed in a 96-well plate at a final concentration of 2 μM in 20 μL volume. Compounds were added at a final concentration of 10 or 100 μM. SYPRO Orange (Molecular Probes) was added as a fluorescence probe at a dilution of 1 in 1000. Excitation and emission filters for the SYPRO-Orange dye were set to 465 and 590 nm, respectively. The temperature was raised with a step of 3 °C per minute from 25 to 96 °C, and fluorescence readings were taken at each interval. The temperature dependence of the fluorescence during the protein denaturation process was approximated by the equation [drawing 1] where ΔuG is the difference in unfolding free energy between the folded and unfolded state, R is the gas constant, and yF and yU are the fluorescence intensity of the probe in the presence of completely folded and unfolded protein, respectively.[65] The baselines of the denatured and native states were approximated by a linear fit. The observed temperature shifts, ΔTm^obs, were recorded as the difference between the transition midpoints of sample and reference wells containing protein without ligand in the same plate and determined by nonlinear least-squares fit. Temperature shifts (ΔTm^obs) for three independent measurements per proteins/compound are summarized in Supporting Information Table S1.

For a further assay, the target named is T2, PCAF (Homo sapiens, UniProt Q92831).
T2 construct: representative BRDs from other structural subfamilies (family I, PCAF); made in house
T2 sequence (Q92831 723-827 limits assumed): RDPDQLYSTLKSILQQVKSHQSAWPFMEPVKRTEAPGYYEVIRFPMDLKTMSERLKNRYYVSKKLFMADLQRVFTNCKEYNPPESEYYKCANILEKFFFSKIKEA
Briefly: Protein stability (thermal) shift assay, PCAF. To be noted: compound 10 μM, protein 2 μM; average of triplicate. As to the method: as §1

In a further assay the target is T3, BRD2(2) (Homo sapiens, UniProt P25440).
T3 construct: made in house
T3 sequence (P25440 344-453 limits assumed): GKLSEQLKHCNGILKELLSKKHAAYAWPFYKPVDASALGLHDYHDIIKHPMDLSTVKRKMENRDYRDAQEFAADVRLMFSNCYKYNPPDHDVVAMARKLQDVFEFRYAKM
The experiment in a line: Protein stability (thermal) shift assay, BRD2(2). To be noted: compound 10 μM, protein 2 μM; average of triplicate. On the procedure:
as §1

A further assay has as its target T4, BRDT(1) (Homo sapiens, UniProt Q58F21).
T4 construct: made in house
Briefly: Protein stability (thermal) shift assay, BRDT(1). The settings on record: compound 10 μM, protein 2 μM; average of triplicate. As to the method: as §1

For the next assay, the target named is T5, BRD3(2) (Homo sapiens, UniProt Q15059).
T5 construct: made in house
T5 sequence (Q15059 306-415 limits assumed): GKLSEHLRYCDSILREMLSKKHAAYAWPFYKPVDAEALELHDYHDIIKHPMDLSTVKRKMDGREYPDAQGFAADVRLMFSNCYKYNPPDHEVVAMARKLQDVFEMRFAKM
Briefly: Protein stability (thermal) shift assay, BRD3(2). To be noted: compound 10 μM, protein 2 μM; average of triplicate. As to the method:
as §1

Assay [1] deals with T6, BRD9 (Homo sapiens, UniProt Q9H8M2).
T6 construct: made in house
T6 sequence (Q9H8M2 136-240 limits assumed): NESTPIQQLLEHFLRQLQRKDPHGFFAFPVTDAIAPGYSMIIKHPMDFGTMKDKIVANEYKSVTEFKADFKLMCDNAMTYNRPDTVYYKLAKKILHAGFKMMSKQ
The experiment in a line: Protein stability (thermal) shift assay, BRD9. On the procedure: as §1

A further assay concerns the target T7, PB1(5) (Homo sapiens, UniProt Q86U86).
T7 construct: made in house
The experiment in a line: Protein stability (thermal) shift assay, PB1(5). The settings on record: compound 10 μM, protein 2 μM; average of triplicate. On the procedure: as §1

For the next assay, the target named is T8, BRDT(2) (Homo sapiens, UniProt Q58F21).
T8 construct: made in house
Briefly: Protein stability (thermal) shift assay, BRDT(2). To be noted: compound 10 μM, protein 2 μM; average of triplicate; read-out: ΔTm Shift, BRDT(2). On the procedure:
as §1

Another assay deals with T9, BRD2(1) (Homo sapiens, UniProt P25440).
T9 construct: Fragments were tested in a thermal shift assay against bromodomains of the BET subfamily; made in house
T9 sequence (P25440 74-180 limits assumed): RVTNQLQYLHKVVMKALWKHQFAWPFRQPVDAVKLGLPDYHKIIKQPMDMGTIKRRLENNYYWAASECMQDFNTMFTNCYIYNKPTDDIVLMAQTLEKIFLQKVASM
The experiment in a line: Protein stability (thermal) shift assay, BRD2(1). To be noted: compound 10 μM, protein 2 μM; average of triplicate. On the procedure:
as §1

In a further assay the target is T10, CREBBP (Homo sapiens, UniProt Q92793).
T10 construct: small thermal shits (1.0–1.3 °C) for the bromodomain of CREBBP; made in house
T10 sequence (Q92793 1085-1192 limits assumed): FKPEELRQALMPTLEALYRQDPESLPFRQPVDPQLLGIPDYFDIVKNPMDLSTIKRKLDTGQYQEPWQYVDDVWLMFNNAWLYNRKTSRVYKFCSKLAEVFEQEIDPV
The experiment in a line: Protein stability (thermal) shift assay, CREBBP. On the procedure: as §1

In assay [2] the target is T11, BRD4(1) (Homo sapiens, UniProt O60885).
T11 construct: made in house
The experiment in a line: Protein stability (thermal) shift assay, BRD4(1). As to the method: as §1

The target in another assay is T12, BRD4(2) (Homo sapiens, UniProt O60885).
T12 construct: made in house
The experiment in a line: Protein stability (thermal) shift assay, BRD4(2). To be noted: compound 10 μM, protein 2 μM; average of triplicate. As to the method:
as §1

The test system of assay [3] is human bromodomains (panel). Briefly: Protein stability (thermal) shift assay, whole panel of human bromodomains. The settings on record: 10 μM compound. On the procedure: as §1
A further assay addresses T13, BAZ2B (Homo sapiens, UniProt Q9UIF8).
T13 construct: representative BRDs from other structural subfamilies (family I, PCAF); family III, CREBBP; family IV, BRD9; family V, BAZ2B; made in house
T13 sequence (Q9UIF8 2060-2164 limits assumed): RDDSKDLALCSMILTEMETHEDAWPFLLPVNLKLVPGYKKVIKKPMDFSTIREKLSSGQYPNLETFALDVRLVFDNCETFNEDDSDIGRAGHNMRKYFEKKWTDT
The experiment in a line: Protein stability (thermal) shift assay, BAZ2B. The settings on record: compound 10 μM, protein 2 μM; average of triplicate; read-out: ΔTm Shift, BAZ2BA. As to the method: as §1

Assay [4] concerns the target T6, BRD9. Briefly: Isothermal titration calorimetry, BRD9. As to the method: (§2) Experiments were carried out on an ITC200 titration microcalorimeter from MicroCal, LLC (GE Healthcare) equipped with a Washing module, with a cell volume of 0.2003 mL, and a 40 μL microsyringe. Experiments were carried out at 15 °C while stirring at 1000 rpm, in ITC buffer (50 mM HEPES, pH 7.5 (at 25 °C), 150 mM NaCl). The microsyringe was loaded with a solution of the protein sample (300−740 μM protein for BRD9 and BRD4(1), respectively, in ITC buffer) and was carefully inserted into the calorimetric cell which was filled with an amount of the ligand (0.2 mL, 20–25 μM in ITC buffer). The system was first allowed to equilibrate until the cell temperature reached 15 °C, and an additional delay of 60 s was applied. All titrations were conducted using an initial control injection of 0.3 μL followed by 38 identical injections of 1 μL with a duration of 2 s (per injection) and a spacing of 120 s between injections. The titration experiments were designed in such a fashion as to ensure complete saturation of the proteins before the final injection. The heat of dilution for the proteins was independent of their concentration and corresponded to the heat observed from the last injection, following saturation of ligand binding, thus facilitating the estimation of the baseline of each titration from the last injection. The collected data were corrected for protein heats of dilution (measured on separate experiments by titrating the proteins into ITC buffer) and deconvoluted using the MicroCal Origin software supplied with the instrument to yield enthalpies of binding (ΔH) and binding constants (KB) in the same fashion as that previously described in detail by Wiseman and co-workers.[66] Thermodynamic parameters were calculated using the basic equation of thermodynamics (ΔG = ΔH – TΔS = −RT ln KB, where ΔG, ΔH, and ΔS are the changes in free energy, enthalpy, and entropy of binding, respectively). In all cases a single binding site model was employed, supplied with the MicroCal Origin software package.

For assay [5], the target named is T11, BRD4(1). Briefly: Isothermal titration calorimetry, BRD4(1). As to the method:
as §2
(In general: ITC needs no label: the signal is the heat of the interaction.)

The mark [6] stands for this setting: compound 10 μM, protein 2 μM, average of triplicate, read-out: ΔTm Shift, CREBBP.
The mark [7] stands for this setting: compound 10 μM, protein 2 μM, average of triplicate, read-out: ΔTm Shift, BRD4(1).
The mark [8] stands for this setting: thermal shift, 10 μM compound, 2 μM protein, read-out: ΔTm.
The mark [9] stands for this setting: ITC, 50 mM HEPES pH 7.5, 150 mM NaCl, 15 °C, reverse titration, triplicate, read-out: KD.
Setting [10] is: LE = ΔG/N, N number of non-hydrogen atoms.

Each structure is given as a SMILES string. Like-named read-outs stand apart in the source and are kept apart here.

T1 sequence (Q15059 34-140 limits assumed): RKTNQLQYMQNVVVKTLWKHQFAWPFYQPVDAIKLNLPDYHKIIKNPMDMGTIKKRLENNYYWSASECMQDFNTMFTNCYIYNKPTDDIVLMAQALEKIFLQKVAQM
T7 sequence (Q86U86 653-763 limits assumed): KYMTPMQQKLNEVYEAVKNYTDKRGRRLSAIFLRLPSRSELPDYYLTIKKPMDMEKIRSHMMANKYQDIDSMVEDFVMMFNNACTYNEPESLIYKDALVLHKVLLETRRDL

Regarding `Nc1nc(-c2ccc(OCc3ccccc3)cc2)c2nc[nH]c2n1` [Compound 3f, 2-Amino-6-(4-(benzyloxy)phenyl)-9H-purine], the ΔTm at 10 µM on BRD3(1) is 2.2 °C; at PCAF, 2.8 °C; at BRD2(2), 3.8 °C; at BRDT(1), 1.8 °C; on BRD3(2), 4.2 °C; on BRD9 [1] (compound 10 μM, protein 2 μM, average of triplicate, read-out: ΔTm Shift, BRD9) it was -0.116 °C. For the same compound, the ΔTm at 10 µM is 1.5 °C at PB1(5); 3.2 °C on BRDT(2); 2 °C on BRD2(1); 2.6 °C at CREBBP (setting [6]); 3.5 °C on BRD4(1) [2] (setting [7]); -51.9 °C at BRD4(2). Besides, in assay [3], the “binding to the bromodomain panel in the ΔTm assay (in words)” value (shortened to “binding … in the ΔTm assay (in words)”) is “showed binding toward all BRDs”.

With `Cn1cnc2c(NCc3ccccc3)nc(NCCO)nc21` [olomoucine, reference compound], in assay [3], the “binding … in the ΔTm assay (in words)” value is “did not show any significant stabilization”.

Turning to `Cn1cnc2c(-c3cccc(OCc4ccc(Cl)cc4)c3)nc(N)nc21` [Compound 4e, 2-Amino-6-(3-(4′-chlorobenzyloxy)phenyl)-9-methylpurine], the ΔTm at 10 µM at BRD3(1) was -0.0167 °C; at PCAF, 0.143 °C; on BRD2(2) it was 0.6 °C; at BRDT(1) it was 0.273 °C; at BRD3(2), 0.223 °C; at BAZ2B, 0.6 °C. Besides, the ΔTm at 10 µM on PB1(5) is 0.5 °C; at BRDT(2), -0.163 °C; at BRD2(1) it was -0.15 °C; on CREBBP (setting [6]), 0.9 °C; at CREBBP (setting [8]), 1 to 1.3 °C; on BRD4(1) [2] (setting [7]) it was 0.177 °C. The ΔTm at 10 µM at BRD4(2) was found to be 0.2 °C. For the same compound, the “binding … in the ΔTm assay (in words)” value in [3] is recorded as “very weak or no binding”.

`COc1ccc(Cl)cc1-c1nc(N)nc2[nH]cnc12` [Compound 7c, 2-Amino-6-(5-chloro-2-methoxyphenyl)-9H-purine]: the ΔTm at 10 µM at BRD3(1) was 0.9 °C; on PCAF, -0.9 °C; on BRD2(2), 1.2 °C; on BRDT(1), 0.272 °C; at BRD3(2), 1.3 °C; at BAZ2B it was 0.272 °C. Further, the ΔTm at 10 µM on BRD9 [1] (setting [8]) amounted to 3.8 °C; on PB1(5), 0.272 °C; at BRDT(2), 0.272 °C; on BRD2(1) it was 0.4 °C; on CREBBP (setting [6]), 0.272 °C; on BRD4(1) [2] (setting [8]), 1.1 °C. Moreover, the ΔTm at 10 µM on BRD4(2) amounted to 0.7 °C. The Kd at BRD9 [4] (setting [9]) came to 297 ± 10 nM; on BRD4(1) [5] (setting [9]), 2040 ± 118 nM; at BRD4(1) [5] (ITC, read-out: dissociation constant), 2040 nM. The TΔS result on BRD9 [4] (ITC, 15 °C) is “–3.46 kcal/mol”; on BRD4(1) [5] (ITC, 15 °C), 1.29 kcal/mol. The ΔG result on BRD9 [4] (ITC, 15 °C) is “–8.59 kcal/mol”; on BRD4(1) [5] (ITC, 15 °C) it was “–7.50 kcal/mol”. In addition, the “N (stoichiometry)” value on BRD9 [4] (ITC, 15 °C, reverse titration) came out at 0.98 ± 0.003; on BRD4(1) [5] (ITC, 15 °C, reverse titration), 1.05 ± 0.012. In addition, the ΔHobs entry at BRD9 [4] (ITC, 15 °C, reverse titration) is “–12.05 ± 0.04 kcal/mol”; on BRD4(1) [5] (ITC, 15 °C, reverse titration) it was “–6.21 ± 0.09 kcal/mol”. In addition, the “LE (ligand efficiency)” value at BRD9 [4] (setting [10]) was 0.45; at BRD4(1) [5] (setting [10]) it was 0.39.
